Earlier results on 1 molecule are cited in patent US20080026050A1, “SOLID DOSE FORMULATIONS OF A THROMBIN RECEPTOR ANTAGONIST” (priority 2006, published 2008).

In this series the target is T1, thrombin receptor (Homo sapiens, UniProt P25116).
T1 sequence (P25116 22-425): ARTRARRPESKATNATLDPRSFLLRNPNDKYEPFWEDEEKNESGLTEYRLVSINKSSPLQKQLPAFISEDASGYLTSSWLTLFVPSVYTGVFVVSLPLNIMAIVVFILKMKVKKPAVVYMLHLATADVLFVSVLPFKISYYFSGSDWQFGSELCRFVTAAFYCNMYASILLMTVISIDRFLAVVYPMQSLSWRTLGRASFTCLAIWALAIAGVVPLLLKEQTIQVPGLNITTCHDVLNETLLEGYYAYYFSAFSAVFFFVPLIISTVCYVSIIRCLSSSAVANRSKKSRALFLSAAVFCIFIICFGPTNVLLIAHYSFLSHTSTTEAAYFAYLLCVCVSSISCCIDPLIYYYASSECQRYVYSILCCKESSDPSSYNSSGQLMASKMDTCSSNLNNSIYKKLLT
Particulars: general statement, refers to U.S. application Ser. No. 10/412,982.

For `CCOC(=O)N[C@@H]1CC[C@@H]2[C@@H](C1)C[C@H]1C(=O)O[C@H](C)[C@H]1[C@H]2/C=C/c1ccc(-c2cccc(F)c2)cn1` [COMPOUND 1], the selectivity result is recorded as “good” and the “thrombin receptor antagonist activity (potency)” value was “good”.
